SMILES strings stand for the structures.

The target in one data set is T1, MMP-3 (Homo sapiens, UniProt P08254).
T1 construct: Catalytic domains MMP-2, MMP-3 and MMP-9 were prepared in Pfizer Central Research laboratories; made in house
Briefly: Inhibition of MMP-3 (fluorogenic peptide cleavage). It is filed as biochemical. The conditions noted are these: in vitro, catalytic domain MMP-3. On the procedure: (§1) The biological activities of the compounds of the present invention were determined by the following test methods, which are based on the ability of the compounds to inhibit the cleavage of various fluorogenic peptides by MMPs 1, 2, 3, 9, 13 and 14.
(§2) The assays for MMPs 2, 3, 9 and 14 are based upon the original protocol described in FEBS, 1992, 296, 263, with the minor modifications described below.
(§3) Inhibition of MMP-2, MMP-3 and MMP-9
(§4) Catalytic domains MMP-2, MMP-3 and MMP-9 were prepared in Pfizer Central Research laboratories. A stock solution of MMP-2, MMP-3 or MMP-9 (1 μM) was activated by the addition of APMA. For MMP-2 and MMP-9, a final concentration of 1 mM APMA was added, followed by incubation for 1 hour at 37° C. MMP-3 was activated by the addition of 2 mM APMA, followed by incubation for 3 hours at 37° C. The enzymes were then diluted in Tris-HCl assay buffer (100 mM Tris, 100 mM NaCl, 10 mM CaCl2 and 0.16% Brij 35, pH 7.5) to a concentration of 10 nM. The final concentration of enzyme used in the assays was 1 nM.
(§5) The fluorogenic substrate used in this screen was Mca-Arg-Pro-Lys-Pro-Tyr-Ala-Nva-Trp-Met-Lys(Dnp)-NH2 (Bachem Ltd., Essex, UK) as originally described in J.Biol.Chem., 1994, 269, 20952. This substrate was selected because it has a balanced hydrolysis rate against MMPs 2, 3 and 9 (kcat/km of 54,000, 59,400 and 55,300 s^−1 M^−1 respectively). The final substrate concentration used in the assay was 5 μM.
(§6) Determination of Enzyme Inhibition
(§7) The test compound was dissolved in dimethyl sulphoxide and diluted with assay buffer so that no more than 1% dimethyl sulphoxide was present. Test compound and enzyme were added to each well of a 96 well plate and allowed to equilibrate for 15 minutes at 37° C. in an orbital shaker prior to the addition of substrate. Plates were then incubated for 1 hour at 37° C., prior to determination of fluorescence using a fluorimeter (Fluostar; BMG Lab Technologies, Aylesbury, UK) at an excitation wavelength of 328 nm and emission wavelength of 393 nm. The potency of inhibition was measured from the amount of substrate cleavage obtained using a range of test compound concentrations and, from the resulting dose-response curve, an IC50 value (the concentration of inhibitor required to inhibit 50% of the enzyme activity) was calculated.

The target in the next data set is T2, MMP-2 (Homo sapiens, UniProt P08253).
T2 construct: Catalytic domains MMP-2, MMP-3 and MMP-9 were prepared in Pfizer Central Research laboratories
T2 sequence (P08253 with tags, fused parts or gaps DEL222-396 limits assumed): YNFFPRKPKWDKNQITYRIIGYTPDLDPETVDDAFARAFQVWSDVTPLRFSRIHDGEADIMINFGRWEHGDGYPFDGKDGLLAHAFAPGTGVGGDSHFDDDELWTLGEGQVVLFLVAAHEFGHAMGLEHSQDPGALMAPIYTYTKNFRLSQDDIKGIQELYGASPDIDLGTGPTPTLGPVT
Briefly: Inhibition of MMP-2 (fluorogenic peptide cleavage). It is filed as biochemical. The conditions noted are these: in vitro, catalytic domain MMP-2. On the procedure: as §1, §2, §3, §4, §5, §6, §7

For data set [1], the system named is human ovarian carcinoma xenografts. The conditions noted are these: mice carrying human ovarian carcinoma xenografts; Cancer Res., 1993, 53, 2087; cited from earlier work.
A further data set has as its target T3, Human recombinant MMP-13 (Homo sapiens, UniProt P45452).
T3 construct: purchased PanVera Corporation (Madison, Wis.)
Kind of data set: Inhibition of MMP-13 (fluorogenic peptide cleavage). It is filed as biochemical. To be noted: in vitro. On the procedure: as §1
Human recombinant MMP-13 was prepared by PanVera Corporation (Madison, Wis.) and characterised at Pfizer Central Research laboratories. A 1.9 mg/ml stock solution was activated with 2 mM APMA for 2 hours at 37° C. MMP-13 was then diluted in assay buffer (50 mM Tris, 200 mM NaCl, 5 mM CaCl2, 20 μM ZnCl2 and 0.02% Brij 35, pH 7.5) to a concentration of 5.3 nM. The final concentration of enzyme used in the assay was 1.3 nM.
The fluorogenic substrate used in this screen was Dnp-Pro-Cha-Gly-Cys(Me)-His-Ala-Lys(NMA)-NH2. The final substrate concentration used in the assay was10 μM.
as §6
The test compound was dissolved in dimethyl sulphoxide and diluted with assay buffer so that no more than 1% dimethyl sulphoxide was present. Test compound and enzyme were added to each well of a 96 well plate. The addition of substrate to each well initiated the reaction. Fluorescence intensity was determined using a 96 well plate fluorimeter (Cytofluor II; PerSeptive Biosystems, Inc., Framingham, Mass.) at an excitation wavelength of 360 nm and emission wavelength of 460 nm. […]

T1 sequence (P08254 100-272 limits assumed): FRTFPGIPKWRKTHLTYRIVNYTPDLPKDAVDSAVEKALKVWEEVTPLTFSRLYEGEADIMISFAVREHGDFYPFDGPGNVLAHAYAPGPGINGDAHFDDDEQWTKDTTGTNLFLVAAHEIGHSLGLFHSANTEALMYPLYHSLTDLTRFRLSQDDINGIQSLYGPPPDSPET

In the case of `C=CCC(C)(C(=O)NO)S(=O)(=O)N1CC=C(c2ccc(-c3ccccc3)c(C)c2)CC1` (racemic) [Example 15, N-Hydroxy-2(R,S)-methyl-2-[4-(3-methyl-4-phenylphenyl)-1,2,3,6-tetrahydropyridin-1-ylsulphonyl]pent-4-enamide], the IC50 against MMP-3 was found to be 20 nM; on MMP-2 it was 173 nM.
`CNC(=O)[C@H](Cc1ccccc1)NC(=O)[C@H](CC(C)C)[C@H](CSc1cccs1)C(=O)NO` [BB-94]: in data set [1], the survival entry is “prolong the survival” and the tumour burden result is “decrease the tumour burden”.
Compound `Cc1cc(C2=CCN(S(=O)(=O)CC(=O)NO)CC2)ccc1-c1ccccc1` [Example 2, N-Hydroxy-2-[4-(3-methyl-4-phenylphenyl)-1,2,3,6-tetrahydropyridin-1-ylsulphonyl]acetamide] yielded a melting point of 190 to 191 °C. In addition, the IC50 on Human recombinant MMP-13 came to 28 nM. Further, half-maximal inhibition against MMP-3 (IC50) required 16 nM. On MMP-2, the concentration for half-maximal inhibition (IC50) was found to be 315 nM.
Consider `O=C(CS(=O)(=O)N1CCC(c2ccc(-c3ccccc3)cc2)CC1)NO` [Example 3, N-Hydroxy-2-[4-(4-phenylphenyl)piperidin-1-ylsulphonyl]acetamide], for which the melting point lay within 200 to 201 °C. For the same compound, the IC50 on Human recombinant MMP-13 came to 25 nM. Further, the IC50 against MMP-3 was 26 nM. Besides, half-maximal inhibition on MMP-2 (IC50) was put at 38 nM.
For the compound `CCOc1cccc(-c2ccc(C3=CCN(S(=O)(=O)C4(C(=O)NO)CCOCC4)CC3)cc2C)c1` [Example 28, N-Hydroxy-4-{4-[4-(3-ethoxyphenyl)-3-methylphenyl]-1,2,3,6-tetrahydropyridin-1-ylsulphonyl}tetrahydropyran-4-carboxymide], the melting point lay in the range of 152 to 154 °C. In addition, the IC50 against MMP-3 worked out at 24 nM. The IC50 on MMP-2 was 432 nM.
Consider `Cc1cc(C2=CCN(S(=O)(=O)C(C)(C)C(=O)NO)CC2)ccc1-c1cnc2ccccc2c1` [Example 40, N-Hydroxy-2-methyl-2-{4-[3-methyl-4-(quinolin-3-yl)phenyl]-1,2,3,6-tetrahydropyridin-1-ylsulphonyl}propanamide], for which the melting point is 158 to 160 °C. Further, at MMP-3, the 50% inhibitory concentration (IC50) was 18 nM. Besides, the IC50 on MMP-2 is 525 nM.
`COc1cccc(-c2ccc(C3CCN(S(=O)(=O)C4(C(=O)NO)Cc5ccccc5C4)CC3)cc2C)c1` [Example 50, N-Hydroxy-2-{4-[4-(3-methoxyphenyl)-3-methylphenyl]piperidin-1-ylsulphonyl}indane-2-carboxymide] returned a melting point of 199 to 202 °C. Besides, on MMP-3, the midpoint of inhibition, the IC50, lay at 23 nM. The concentration for half-maximal inhibition (IC50) against MMP-2 was 1910 nM.
Compound `Cc1cc(C2=CCN(S(=O)(=O)CC(=O)NO)CC2)ccc1-c1ccc2c(c1)OCO2` [Example 56, N-Hydroxy-2-{4-[4-(1,3-benzodioxol-5-yl)-3-methylphenyl]-1,2,3,6-tetrahydropyridin-1-ylsulphonyl}acetamide] returned a melting point of 165 to 167 °C. The same compound had an IC50 against MMP-3 of 15 nM. The half-maximal inhibitory concentration (IC50) against MMP-2 was found to be 387 nM.

These data come from patent US6495568B1, “Hydroxamic acid derivatives as matrix metalloprotease (MMP) inhibitors” (Warner-Lambert Company, priority 1997, dated 2002).
